Results: ChEMBL document CHEMBL1938312, “Design and combinatorial synthesis of a novel kinase-focused library using click chemistry-based fragment assembly” (Bioorg Med Chem Lett, 2012)
Calls of active or inactive are those of the source. The rule behind the calls is not given here.

How the values were obtained:
[1] = target: Cyclin-dependent kinase 2/cyclin A (Homo sapiens) (UniProt P24941+P20248+P78396); experiment: Inhibition of CDK2/CycA2 at 10 uM by colorimetric analysis; format: protein-complex assay
[2] = target: Fibroblast growth factor receptor 1 (Homo sapiens) (UniProt P11362); experiment: Inhibition of FGFR1 at 10 uM by colorimetric analysis
[3] = target: T1, Serine/threonine-protein kinase Chk1 (Homo sapiens) (UniProt O14757); experiment: Inhibition of CHK1 at 10 uM by colorimetric analysis
T1 sequence (whole entry): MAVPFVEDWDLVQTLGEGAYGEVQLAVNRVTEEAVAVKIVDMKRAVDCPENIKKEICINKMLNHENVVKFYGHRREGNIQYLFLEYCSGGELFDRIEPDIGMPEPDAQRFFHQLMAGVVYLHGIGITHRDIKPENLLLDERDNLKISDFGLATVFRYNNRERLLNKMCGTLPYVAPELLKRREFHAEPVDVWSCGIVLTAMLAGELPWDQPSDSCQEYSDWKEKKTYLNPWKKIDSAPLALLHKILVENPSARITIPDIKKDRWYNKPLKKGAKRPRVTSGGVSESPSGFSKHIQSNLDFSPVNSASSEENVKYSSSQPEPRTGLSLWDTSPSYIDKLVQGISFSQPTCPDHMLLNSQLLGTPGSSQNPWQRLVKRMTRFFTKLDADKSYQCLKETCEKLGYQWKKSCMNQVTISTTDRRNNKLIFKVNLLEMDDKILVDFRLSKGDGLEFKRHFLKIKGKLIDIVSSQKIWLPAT

[4] = target: Glycogen synthase kinase-3 beta (Homo sapiens, UniProt P49841); experiment: Inhibition of GSK3-beta by colorimetric analysis
Chain of Glycogen synthase kinase-3 beta (P49841 whole entry): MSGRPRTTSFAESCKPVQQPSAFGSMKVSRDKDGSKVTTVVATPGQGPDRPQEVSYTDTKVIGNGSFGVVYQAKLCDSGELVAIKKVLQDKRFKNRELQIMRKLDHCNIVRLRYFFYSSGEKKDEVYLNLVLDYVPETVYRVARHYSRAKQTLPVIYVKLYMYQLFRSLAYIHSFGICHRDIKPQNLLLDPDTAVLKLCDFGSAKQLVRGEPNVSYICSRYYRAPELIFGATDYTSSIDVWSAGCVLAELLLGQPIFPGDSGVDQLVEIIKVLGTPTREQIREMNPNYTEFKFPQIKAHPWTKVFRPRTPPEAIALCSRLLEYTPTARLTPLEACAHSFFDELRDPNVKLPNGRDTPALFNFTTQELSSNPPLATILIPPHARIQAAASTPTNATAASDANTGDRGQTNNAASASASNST

Chain of Fibroblast growth factor receptor 1 (Homo sapiens) (P11362 22-822 limits assumed): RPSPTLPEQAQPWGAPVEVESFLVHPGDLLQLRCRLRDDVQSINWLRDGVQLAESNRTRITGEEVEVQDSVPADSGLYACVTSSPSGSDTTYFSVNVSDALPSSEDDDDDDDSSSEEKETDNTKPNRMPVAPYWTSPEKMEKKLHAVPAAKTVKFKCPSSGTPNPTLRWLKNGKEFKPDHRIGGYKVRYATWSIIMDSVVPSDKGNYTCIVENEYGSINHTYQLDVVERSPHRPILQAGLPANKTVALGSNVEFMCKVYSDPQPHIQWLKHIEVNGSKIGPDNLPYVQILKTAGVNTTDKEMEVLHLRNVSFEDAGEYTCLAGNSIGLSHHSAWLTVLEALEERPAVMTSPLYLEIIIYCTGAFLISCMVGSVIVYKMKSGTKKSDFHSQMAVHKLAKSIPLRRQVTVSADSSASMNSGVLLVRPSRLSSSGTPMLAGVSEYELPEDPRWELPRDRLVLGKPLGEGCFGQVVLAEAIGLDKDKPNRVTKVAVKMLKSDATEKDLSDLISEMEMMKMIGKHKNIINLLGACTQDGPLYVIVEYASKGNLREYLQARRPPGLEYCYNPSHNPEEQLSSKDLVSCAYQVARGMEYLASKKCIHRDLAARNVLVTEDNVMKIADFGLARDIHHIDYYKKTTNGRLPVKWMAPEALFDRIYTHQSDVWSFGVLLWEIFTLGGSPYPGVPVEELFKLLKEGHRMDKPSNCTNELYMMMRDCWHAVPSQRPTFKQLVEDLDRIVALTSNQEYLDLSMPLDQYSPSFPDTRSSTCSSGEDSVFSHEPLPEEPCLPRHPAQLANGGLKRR

inhibition [1]	inhibition [2]	inhibition [3]	IC50 [4]	SMILES
Active	inactive	Active		Clc1cccc(-n2nncc2-c2ccncc2)c1
Active	inactive	Active	1100 nM	Clc1ccc(-n2cc(-c3ccncc3)nn2)cc1
Active	inactive	Active		Clc1ccc(-n2nncc2-c2ccncc2)cc1
Active	inactive	Active	1800 nM	Clc1cccc(-n2cc(-c3ccncc3)nn2)c1
